# According to patent US11471452B2, “Compositions and methods for treating or preventing vasomotor symptoms” (Mitsubishi Tanabe Pharma Corporation, priority 2017, dated 2022):
# Legend:
# [1] = test system: female subjects experiencing Vasomotor Symptoms (VMS); assay: Phase Ib study: frequency of vasomotor symptoms (VMS), moderate and severe VMS counted, 14 days once nightly dosing; format: in vivo, human; design: Mean Observed Value in VMS frequency: unit not given here
# From the text: (§1) Study Design: This was a Phase Ib, randomized, double blind, placebo controlled study. The study design is illustrated in FIG. 1. Following the initial Screening visit, eligible subjects was given an actigraphy event monitor (watch) to record episodes of flashing as Vasomotor symptoms (VMS) events during a period of 2 weeks during Screening, in order to confirm VMS eligibility criteria (≥7 VMS/day on average during 2 weeks). Subjects may be required to return to the site during the Screening period to read or exchange the actigraphy event monitor. Subjects deemed eligible following review of VMS data were invited to attend the Clinical research unit (CRU) for one residential period of 16 days duration, including 14 days of Investigational Medicinal Product (IMP) administration. Subjects were admitted to the CRU 1 day prior to dosing (Day-1). No medication was administered on Day-1. On Day 1, subjects who meet the study eligibility criteria were randomized to receive one dose level of either Compound A (6 subjects) or a matching placebo (2 subjects) in a double-blind manner. Randomized treatment was administered once nightly, starting on Day 1, for a total duration of 14 days.
# The anticipated dose levels of Compound A to be administered are 50 mg for Cohort 1, 20 mg for Cohort 2 and 5 mg for Cohort 3. Progression to the next dose level and selection of the dose to be administered in Cohort 2 and Cohort 3 is based on emerging safety and tolerability data and available core body temperature data from the preceding dose cohort. If the dose escalation stopping criteria are met, then the dose for the subsequent cohort is reduced. […] The three cohorts are dosed sequentially with a fourth additional cohort being dosed, if necessary, to investigate other dose levels.
# Five (5) mg of Compound A was administered to the female subjects experiencing Vasomotor Symptoms (VMS), and as the above-mentioned assessments, a Frequency of VMS and a Core body temperature assessment were examined.
# Here a moderate VMS and a severe VMS were counted as a VMS frequency.
# [2] = test system: female subjects experiencing Vasomotor Symptoms (VMS); assay: Phase Ib study: core body temperature assessment, change from baseline within 24 hours post-dose; format: in vivo, human; details: 5 mg administered group, within 24 hours post-dose on Visit Day 1 or 7; like placebo, in comparison with 20 mg and 50 mg groups
# From the text: as §1
# The anticipated dose levels of Compound A to be administered are 50 mg for Cohort 1, 20 mg for Cohort 2 and 5 mg for Cohort 3. […]
smiles,measurement,setting,value
"O=C(O)c1ccc(S(=O)(=O)N(Cc2ccc(OC(F)(F)F)cc2)c2ncc3ccccc3c2C2CC2)cc1 [Compound A, 4-({(4-cyclopropylisoquinolin-3-yl)[4-(trifluoromethoxy)benzyl]amino}sulfonyl)benzoic acid]",Effect on frequency of VMS versus placebo (FIG. 2),"[1]; 5 mg once nightly, 14 days of treatment",reduced the frequency of VMS significantly
same,Onset of the reduction effect of VMS frequency,"[1]; 5 mg, shown during the first night of active drug therapy or later, within a few days, compared to estrogen or Paroxetine",immediate effect
same,Mean Observed Value in VMS frequency,"[1]; Baseline, 5 mg Compound A group, moderate and severe VMS counted",14.5
same,Mean Observed Value in VMS frequency,"[1]; Day 1, 5 mg once nightly",9.7
same,Mean Observed Value in VMS frequency,"[1]; Day 2, 5 mg once nightly",7.2
same,Mean Observed Value in VMS frequency,"[1]; Day 3, 5 mg once nightly",6.3
same,Mean Observed Value in VMS frequency,"[1]; Day 4, 5 mg once nightly",5.3
same,Mean Observed Value in VMS frequency,"[1]; Day 5, 5 mg once nightly",8.0
same,Mean Observed Value in VMS frequency,"[1]; Day 6, 5 mg once nightly",6.3
same,Mean Observed Value in VMS frequency,"[1]; Day 7, 5 mg once nightly",4.7
same,Mean Observed Value in VMS frequency,"[1]; Day 8, 5 mg once nightly",3.7
same,Mean Observed Value in VMS frequency,"[1]; Day 9, 5 mg once nightly",4.5
same,Mean Observed Value in VMS frequency,"[1]; Day 10, 5 mg once nightly",3.2
same,Mean Observed Value in VMS frequency,"[1]; Day 11, 5 mg once nightly",3.7
same,Mean Observed Value in VMS frequency,"[1]; Day 12, 5 mg once nightly",3.2
same,Mean Observed Value in VMS frequency,"[1]; Day 13, 5 mg once nightly",3.2
same,Mean Observed Value in VMS frequency,"[1]; Day 14, 5 mg once nightly",4.8
same,Change from baseline in core body temperature,[2],no significant reduced the core body temperature
